From patent US9278940B2, “Cyclic amines as bromodomain inhibitors” (Zenith Epigenetics Corp., priority 2012, dated 2016)
Where a name gives a salt, the structure may show the parent alone.

Tests used:
hIL-6 mRNA = test: Inhibition of hIL-6 mRNA transcription in LPS-stimulated U937 macrophages; type: cell-based, human; design: key: Active: Compounds with an IC50 value less than 30 μM are deemed to be active.; Not Active: Compounds with an IC50 value less than 30 μM are deemed to be active; conditions: U937 cells differentiated with PMA, 1 h pretreatment, LPS 3 h
Experimental: In this example, hIL-6 mRNA in tissue culture cells was quantitated to measure the transcriptional inhibition of hIL-6 when treated with a compound of the present disclosure.
A human leukemic monocyte lymphoma cell line (U937) was plated (3.2×10^4 cells per well) in a 96-well plate in […] RPMI-1640 containing 10% FBS and penicillin/streptomycin, and differentiated into macrophages for 3 days in 60 ng/mL PMA ([…]) at 37° C. in 5% CO2 prior to the addition of the compound of interest. The cells were pretreated for 1 h with the test compound prior to stimulation with 1 ug/mL lipopolysaccharide from Escherichia coli. The cells were incubated at 37-C for 3 h before the cells were harvested. At time of harvest, the spent media was removed from the cells and the cells were rinsed in 200 μL PBS. Cell lysis solution (70 μL) was added the cells in each well and incubated for 5-10 min at room temperature, to allow for complete cell lysis and detachment. mRNA was then prepared using the “mRNA Catcher PLUS plate” (Invitrogen), according to the protocol supplied. After the last wash, as much wash buffer as possible was aspirated without allowing the wells to dry. Elution buffer (E3, 70 μL) was then added to each well. mRNA was then eluted by incubating the mRNA Catcher PLUS plate with Elution Buffer for 5 min at 68° C. and then immediately placing the plate on ice.
The eluted mRNA isolated was then used in a one-step quantitative real-time PCR reaction, using components of the Ultra Sense Kit together with Applied Biosystems primer-probe mixes. Real-time PCR data was analyzed, normalizing the Ct values for hIL-6 to an internal control, prior to determining the fold induction of each unknown sample, relative to the control.

Human AML MV-4-11 cells = test: Inhibition of cell proliferation in MV4-11 cells; type: cell-based; design: key: Active: Compounds with an IC50 value less than 30 μM are deemed to be active.; Not Active: Compounds with an IC50 value less than 30 μM are deemed to be active; conditions: 72 hours
Experimental: MV4-11 cells: 96-well plates were seeded with 5×10^4 cells per well of exponentially growing human AML MV-4-11 (CRL-9591) cells and immediately treated with two-fold dilutions of test compounds, ranging from 30 μM to 0.2 μM. Triplicate wells were used for each concentration, as well as a media only and three DMSO control wells. The cells and compounds were incubated at 37° C., 5% CO2 for 72 hours before adding 20 μL of the CellTiter Aqueous One Solution (Promega) to each well and incubating at 37° C., 5% CO2 for an additional 3-4 hours. The absorbance was taken at 490 nm in a spectrophotometer and the percentage of proliferation relative to DMSO-treated cells was calculated after correction from the blank well. IC50 were calculated using the GraphPad Prism software.

c-myc = test: Inhibition of c-myc expression (mRNA, real-time PCR) in MV4-11 cells; type: cell-based; design: key: Active: Compounds with an IC50 value less than 30 μM were deemed to be active.; Not Active: Compounds with an IC50 value less than 30 μM were deemed to be active; conditions: Human AML MV4-11 cells, 3 hours
Experimental: MV4-11 cells (2.5×10^4 cells) were plated in 96 well U-bottom plates with test compound or DMSO (0.1%), and incubated for 3 hours at 37° C. Cells were then harvested by centrifugation, lysed, and mRNA was isolated using the mRNA catcher plus kit (Invitrogen). Reverse transcription of the mRNA and duplex amplification of the c-myc and cyclophilin cDNAs was performed using the RNA Ultrasense kit (Invitrogen) and a ViiA7 real-time PCR machine (Applied Biosystems). IC50 values were determined from a dose response curve.

hApoA-1 mRNA = test: Up-regulation of hApoA-1 mRNA transcription in Huh7 cells; type: cell-based, human; design: key: Active: Compounds with an EC170 value less than 30 μM are deemed to be active.; Not Active: Compounds with an EC170 value less than 30 μM are deemed to be active; conditions: 48 hrs treatment, ApoA-I mRNA
Experimental: In this example, ApoA-I mRNA in tissue culture cells was quantitated to measure the transcriptional up-regulation of ApoA-I when treated with a compound of the present disclosure.
Huh7 cells ([…] per well) were plated in a 96-well plate using 100 μL DMEM per well, (Gibco DMEM supplemented with penicillin/streptomycin and 10% FBS), 24 h before the addition of the compound of interest. After 48 hrs treatment, the spent media was removed from the Huh-7 cells and placed on ice (for immediate use) or at −80° C. (for future use) with the “LDH cytotoxicity assay Kit II” from Abcam. The cells remaining in the plate were rinsed with 100 μL PBS.
Then 85 μL of cell lysis solution was added to each well and incubated for 5-10 minutes at room temperature, to allow for complete cell lysis and detachment. mRNA was then prepared using the “mRNA Catcher PLUS plate” from Life Technologies, according to the protocol supplied. After the last wash, as much wash buffer as possible was aspirated without allowing the wells to dry. Elution Buffer (E3, 80 μL) was then added to each well. mRNA was then eluted by incubating the mRNA Catcher PLUS plate with Elution Buffer for 5 minutes at 68° C., and then 1 minute at 4° C. Catcher plates with mRNA eluted were kept on ice for use or stored at −80° C.
The eluted mRNA isolated was then used in a one-step real-time PCR reaction, using components of the Ultra Sense Kit together with Life Technologies primer-probe mixes. Real-time PCR data was analyzed, using the Ct values, to determine the fold induction of each unknown sample, relative to the control (that is, relative to the control for each independent DMSO concentration).
Compounds with an EC170 value less than 30 μM are deemed to be active.

Brd4 bromodomain 1 = biological target: T1, Brd4 bromodomain 1 (Homo sapiens, UniProt O60885); test: Inhibition of tetra-acetylated histone H4 binding to BET bromodomain (TR-FRET); design: key: Active: Compounds with an IC50 value less than 30 μM were deemed to be active.; Not Active: Compounds with an IC50 value less than 30 μM were deemed to be active; conditions: Brd4 bromodomain 1, tetra-acetylated histone H4 peptide
T1 construct: made in house; host or cells: E. coli BL21(DE3)
Experimental: Proteins were cloned and overexpressed with a N-terminal 6×His tag, then purified by nickel affinity followed by size exclusion chromatography. Briefly, E. coli BL21(DE3) cells were transformed with a recombinant expression vector encoding N-terminally Nickel affinity tagged bromodomains from Brd2, Brd3, Brd4. Cell cultures were incubated at 37° C. with shaking to the appropriate density and induced overnight with IPTG. The supernatant of lysed cells was loaded onto Ni-IDA column for purification. Eluted protein is pooled, concentrated and further purified by size exclusion chromatography. Fractions representing monomeric protein were pooled, concentrated, aliquoted, and frozen at −80° C. for use in subsequent experiments.
Binding of tetra-acetylated histone H4 and BET bromodomains was confirmed by a Time Resolved Fluorescence Resonance Energy Transfer (TR-FRET) method. N-terminally His-tagged bromodomains (200 nM) and biotinylated tetra-acetylated histone H4 peptide (25-50 nM, Millipore) were incubated in the presence of Europium Cryptate-labeled streptavidin (Cisbio Cat. #610SAKLB) and XL665-labeled monoclonal anti-His antibody (Cisbio Cat. #61HISXLB) in a white 96 well microtiter plate (Greiner). For inhibition assays, serially diluted test compound was added to these reactions in a 0.2% final concentration of DMSO. Final buffer concentrations were 30 mM HEPES pH 7.4, 30 mM NaCl, 0.3 mM CHAPS, 20 mM phosphate pH 7.0, 320 mM KF, 0.08% BSA). After 2 hours incubation at room temperature, the fluorescence by FRET was measured at 665 and 620 nm by a SynergyH4 plate reader (Biotek). The binding inhibitory activity was shown by a decrease in 665 nm fluorescence relative to 620 nm. IC50 values were determined from a dose response curve.

COc1cc(OC)c2c(=O)[nH]c(-c3ccc(OCCO)c(N4CCN(C(C)C)CC4)n3)nc2c1 (as salt: acetate) [Example 13, 2-(5-(2-Hydroxyethoxy)-6-(4-isopropylpiperazin-1-yl)pyridin-2-yl)-5,7-dimethoxyquinazolin-4(3H)-one acetate]
melting point: 138 to 139 °C

COc1cc(OC)c2c(=O)[nH]c(-c3cccc(N4CCN(CCS(C)(=O)=O)CC4)n3)nc2c1 [Example 6, 5,7-Dimethoxy-2-(6-(4-(2-(methylsulfonyl)ethyl)piperazin-1-yl)pyridin-2-yl)quinazazolin-4(3H)-one]
IL-6 activity (IC50 < 30 μM) (hIL-6 mRNA): Active
cell proliferation activity (IC50 < 30 μM) (Human AML MV-4-11 cells): Not Active
c-myc activity (IC50 < 30 μM) (c-myc): Not Active
ApoA-1 activity (EC170 < 30 μM) (hApoA-1 mRNA): Active
FRET activity (IC50 < 30 μM) (Brd4 bromodomain 1): Active

COc1cc(OC)c2c(=O)[nH]c(-c3ccc(OCCNC(C)C)c(N4CCN(C(C)C)CC4)n3)nc2c1 [Example 12, 2-(5-(2-(Isopropylamino)ethoxy)-6-(4-isopropylpiperazin-1-yl)pyridin-2-yl)-5,7-dimethoxyquinazolin-4(3H)-one bis(trifluoroacetate)]
IL-6 activity (IC50 < 30 μM) (hIL-6 mRNA): Not Active
cell proliferation activity (IC50 < 30 μM) (Human AML MV-4-11 cells): Active
c-myc activity (IC50 < 30 μM) (c-myc): Active
ApoA-1 activity (EC170 < 30 μM) (hApoA-1 mRNA): Active
FRET activity (IC50 < 30 μM) (Brd4 bromodomain 1): Active

COc1cc(OC)c2c(=O)[nH]c(-c3ccc(OCCO)c(N4CCN(C(C)C)CC4)n3)nc2c1 [Example 13, 2-(5-(2-Hydroxyethoxy)-6-(4-isopropylpiperazin-1-yl)pyridin-2-yl)-5,7-dimethoxyquinazolin-4(3H)-one acetate]
IL-6 activity (IC50 < 30 μM) (hIL-6 mRNA): Active
cell proliferation activity (IC50 < 30 μM) (Human AML MV-4-11 cells): Not Active
c-myc activity (IC50 < 30 μM) (c-myc): Active
ApoA-1 activity (EC170 < 30 μM) (hApoA-1 mRNA): Active
FRET activity (IC50 < 30 μM) (Brd4 bromodomain 1): Active

COc1cc(OC)c2c(=O)[nH]c(-c3cccc(N4CCN(C)CC4)n3)nc2c1 [Example 15, 5,7-Dimethoxy-2-(6-(4-methylpiperazin-1-yl)pyridin-2-yl)quinazolin-4(3H)-one Hydrochloride]
IL-6 activity (IC50 < 30 μM) (hIL-6 mRNA): Active
cell proliferation activity (IC50 < 30 μM) (Human AML MV-4-11 cells): Active
c-myc activity (IC50 < 30 μM) (c-myc): Active
ApoA-1 activity (EC170 < 30 μM) (hApoA-1 mRNA): Active
FRET activity (IC50 < 30 μM) (Brd4 bromodomain 1): Active

CCC(=O)N1CCN(c2cccc(-c3nc4cc(OC)cc(OC)c4c(=O)[nH]3)n2)CC1 [Example 19, 5,7-Dimethoxy-2-(6-(4-propionylpiperazin-1-yl)pyridin-2-yl)quinazolin-4(3H)-one dihydrochloride]
IL-6 activity (IC50 < 30 μM) (hIL-6 mRNA): Not Active
cell proliferation activity (IC50 < 30 μM) (Human AML MV-4-11 cells): Not Active
c-myc activity (IC50 < 30 μM) (c-myc): Not Active
ApoA-1 activity (EC170 < 30 μM) (hApoA-1 mRNA): Active
FRET activity (IC50 < 30 μM) (Brd4 bromodomain 1): Active

COc1cc(OC)c2c(=O)[nH]c(-c3cccc(N4CCC(N(C)C)CC4)n3)nc2c1 [Example 29, 2-(6-(4-(Dimethylamino)piperidin-1-yl)pyridin-2-yl)-5,7-dimethoxyquinazolin-4(3H)-one]
IL-6 activity (IC50 < 30 μM) (hIL-6 mRNA): Active
cell proliferation activity (IC50 < 30 μM) (Human AML MV-4-11 cells): Active
c-myc activity (IC50 < 30 μM) (c-myc): Active
ApoA-1 activity (EC170 < 30 μM) (hApoA-1 mRNA): Active
FRET activity (IC50 < 30 μM) (Brd4 bromodomain 1): Active

COc1cc(OC)c2c(=O)[nH]c(-c3cc(Cl)cc(N4CCNCC4)c3)nc2c1 [Example 31, 2-(3-Chloro-5-(piperazin-1-yl)phenyl)-5,7-dimethoxyquinazolin-4(3H)-one]
IL-6 activity (IC50 < 30 μM) (hIL-6 mRNA): Active
cell proliferation activity (IC50 < 30 μM) (Human AML MV-4-11 cells): Active
c-myc activity (IC50 < 30 μM) (c-myc): Active
ApoA-1 activity (EC170 < 30 μM) (hApoA-1 mRNA): Active
FRET activity (IC50 < 30 μM) (Brd4 bromodomain 1): Active

COc1cc(OC)c2c(=O)[nH]c(-c3cc(Cl)cc(N4CCN(C(C)C)CC4)c3)nc2c1 [Example 32, 2-(3-Chloro-5-(4-isopropylpiperazin-1-yl)phenyl)-5,7-dimethoxyquinazolin-4(3H)-one]
IL-6 activity (IC50 < 30 μM) (hIL-6 mRNA): Active
cell proliferation activity (IC50 < 30 μM) (Human AML MV-4-11 cells): Active
c-myc activity (IC50 < 30 μM) (c-myc): Active
ApoA-1 activity (EC170 < 30 μM) (hApoA-1 mRNA): Active
FRET activity (IC50 < 30 μM) (Brd4 bromodomain 1): Active
